{"source": "patent US20130040291A1", "about": "“Detection and Quantification of Cellular Stress Response Resolution Pathway Expression and Functionality and the Effects of Agents or Conditions Thereupon” (priority 2011, published 2013)", "key": {"CDNR4 cells [1]": {"test_system": "CDNR4 cells", "assay": "Determination of the SRID-50% level of 6-TG (calibrated stress conditions)", "assay_type": "cell-based, murine", "experimental": "The calibrated stress conditions and the SRID-x % level are determined ideally using parental, control, or vehicle-exposed cells. This portion of the assay requires that several variables, including cell plating density, calibrated stress conditions level, and duration of stress conditions exposure be optimized simultaneously. These variables are interdependent such that each affects the outcome of the other, thereby making this portion of the assay one of the most critical. To achieve high sensitivity for detection of assay endpoints, it is important that the maximum number of cells be evaluated; however, optimal calibrated stress conditions are achieved at relatively low cell plating densities. In addition, cell plating densities and the SKID-x % level of stress inducing agent chosen for use in the assay must be such that fewer than one positive endpoint per well occurs in the assay. Using cell survival as an example, if multiple surviving cell clones are identified in the same well(s) during an experiment, then the cell plating density must be reduced and/or the SRID-x % level must be increased so that the frequency of occurrence of surviving clones is reduced to less than one per well. Thus, optimization of these variables is necessary.\nPilot studies that evaluate a range of cell plating densities and a range of calibrated stress conditions levels for the stress inducing agent of choice are used and are applied to untreated, control or parental cells. It is advisable to use a low plating density that results in rapid expression of stress resolution pathways (within 3 to 4 days where possible), or as quickly as possible after calibrated stress conditions exposure. In spite of potentially significant differences between cells of different types from different tissues and from different species, preliminary results from the SR assay support the conclusion that the optimal plating density for many cell types falls within a predictable range. […] These values can serve as starting points for empirical determination of the optimal cell plating density for the cells of interest to be used in the assay.\nAfter estimating the optimal cell plating density, dose response curves are generated for the calibrated stress conditions agent of interest. For experiments in which cell survival is the phenotype of interest, work with the assay completed to date supports the conclusion that calibrated stress conditions levels that reduce expression of pro-survival pathways to a level that results in survival of one or fewer clones in 50% of the wells of a 96 well plate (defined as the SRID-50%) is the optimal level for assessment of damage avoidance pro-survival pathways. Use of these levels also results in a sufficiently robust expression of damage tolerance paths to make it possible to evaluate differences or changes in expression of these pathways between cell types and/or between differing exogenous exposures. Because cell plating density and level of calibrated stress inducing agent are inter-dependent, it may be necessary to perform several pilot studies using differing cell plating densities and a range of stress-response inducing levels to find the optimal combination of use with the cell type of interest in the assay.\nThere are two limits associated with Poisson distribution principles that must be considered in selecting the SRID-x % level of stress inducing agent. First, stress induction levels that result in a response frequency, for the response type of interest, that is near or equal to 100% of the sites being evaluated should be avoided and the same considerations are true for stress induction levels resulting in responses frequencies near or equal to 0%. The SR assay cannot accurately quantify response frequencies near 100% or near 0%, and this limitation forms the one of the factors affecting the selection of the SRID-x % level. […]"}, "CDNR4 cells [2]": {"test_system": "CDNR4 cells", "assay": "Observation of cells during the adaptive response period after the initial exposure", "assay_type": "cell-based, murine", "conditions": "ENU 20 micrograms/ml 1 hour; resolved after 10 to 12 days", "experimental": "The murine mammary epithelial cells designated CDNR4 were grown in their preferred growth medium (42% DMEM, 42% Hams F-12, 12% FBS, 1% 100×L-glutamine, 1% pen-strep, 0.5% to 1% bovine pituitary extract) until approximately 6 million cells were available. Cells were removed from the expansion flasks, counted, and replated at a rate of 500,000 cells per […] flask in growth medium. The flasks were assigned randomly to one of two groups: a vehicle-alone exposure (control group); an ENU-exposure (treated) group. For flasks of ENU-exposed cells, ENT was added to the growth medium to achieve a final concentration of 20 micrograms per milliliter. For group 1 flasks, a volume of growth medium equal to the volume of ENU was added to the flasks. The cells were exposed to this solution for 1 hour at 37° C.; at the end of this time the solution was removed, the cells were washed with PBS at 37° C., and the cells were re-fed with fresh growth medium.\nThis drop in pH recurred within six to 12 hours after re-feeding the cells with fresh growth medium. To reduce this problem, all cells (vehicle-exposed and ENU-exposed) were re-fed every day with medium that was buffered with HEPES at a concentration of 25 millimolar. […] This process of increased cell death among ENU-exposed cells resolved after approximately 10 to 12 days. […]"}}, "data": [{"compound": "CCN(N=O)C(N)=O", "note": "[ENU, ethylnitrosourea]", "values": [{"measurement": "SRID-50% of ENU-exposed cells", "setting": "CDNR4 cells [1]; ENU 20 micrograms/ml 1 hour, 2 weeks earlier, 600 cells per well, stress agent 6-TG", "result": 2.5, "unit": "micrograms/ml"}, {"measurement": "reduction in the functionality of pro-survival cellular stress response pathways", "setting": "CDNR4 cells [1]; ENU-exposed vs unexposed CDNR4 cells, from SRID-50% levels", "result": 20, "unit": "fold"}, {"measurement": "SRID-50% level of ENU-exposed CDNR4 cells", "setting": "CDNR4 cells [1]; pre-exposure 20 micrograms ENU 1 hour, tested two weeks later, 6-TG for 4 days", "result": 2.5, "unit": "micrograms 6-TG"}, {"measurement": "cell death among ENU-exposed flasks during adaptive response period", "setting": "CDNR4 cells [2]", "result": "slight non-significant increase in cell death"}]}]}
